Measurements published in US5747239A, “Synthetic peptides specific for the detection of antibodies to HCV, diagnosis of HCV infection and preventions thereof as vaccines” (United Biomedical, Inc., priority 1994, dated 1998).

Columns and labels:
Format in all cases: binding, human
antibodies to HCV [1] = assay: NS-1 peptide ELISA, early and late HCV infection panels
Procedure: In addition, all sixteen NS-1 peptides were tested on panels of samples representing HCV-antibody positive donors (n=9) in an early stage of infection, namely plasmapheresis donors with the first occurrence of an ALT level >100 i.u./L, and those asymptomatic individuals (n=14) disqualified from blood donation because of a reactive result for anti-HIV or HBc, for whom the anti-HCV result probably represents a past infection.
These select panels were chosen from hundreds of HCV positive sera for their ability to recognize NS-1 antigens. For both groups, peptide designated as 232A (pep2) had the greatest immunoreactivity. Using pep2 as a standard, the relative immunoreactivity of each peptide was calculated (Table 3C).

antibodies to HCV [2] = assay: NS-1 peptide ELISA, Panel II (asymptomatic individuals, mainland China and Taiwan); conditions: NS-1 peptides; Panel II (CH1-CH7); relative to pep1 (231C)
Procedure: Wells of 96-well plates were coated for 1 hour at 37° C. with each of the 16 peptides (designated as peptides 241A-C, 231A-E, 232A-D, 233C, 234A-C), synthesized according to sequences derived from the NS-1 region (Table 3A), at 5 ug/mL at 100 uL per well in 10 mM NaHCO3 buffer, pH 9.5. Each peptide's immunoreactivity was measured as previously described (see Example 1), using an 8 member serum panel (Panel I).
A panel of serum samples from individuals coming from regions in which hepatitis C is endemic, namely mainland China and Taiwan, were tested for evidence of reactivity to these NS-1 protein derived peptides. Twenty-four samples were chosen from individuals who had no recognizable symptoms of non-A, non-B hepatitis and for whom the peptide based HCV EIA, Format C, as described in Example 11, was nonreactive. Seven of the 24 samples (29%) were reactive against one or more peptides from the NS-1 region, indicative of the presence of long term protective antibodies responsive to this region. This 7 member panel (designated as Panel II, CH1-CH7) was used to further characterize these NS-1 peptides for their immunoreactivity.
The peptide with the greatest reactivity against the serum Panel II again was pep1 (designated 231c in Table 3A). Using this peptide as a standard, the relative immunoreactivity for each of the other 15 peptides from the NS-1 region are calculated in Table 3A.

antibodies to HCV [3] = assay: Envelope/NS-1 peptide ELISA, anti-HCV positive plasmapheresis donors with elevated ALT (Panel III); conditions: envelope/NS-1 peptides; Panel III (17 samples); peptide 254B as a standard
Procedure: To select a panel of samples with reactivity to peptides from the envelope/NS-1 region, 97 such samples from anti-HCV positive plasmapheresis donors with elevated ALT levels were tested with peptide 254B. […] 17 samples with the greatest reactivity with peptide 254B were chosen to form a third panel (Panel III) to screen for the immunoreactivity of the other 20 peptides from the envelope/NS-1 region. The individual absorbance values of each of the 17 samples on the four peptides with the greatest reactivity, i.e. 255C (pep7), 254B (pep8), 247B (pep9), and 246D (pep10), are listed in Table 8b.

antibodies to HCV [4] = assay: Peptide ELISA for relative immunoreactivity, 8 member HCV serum panel (Panel I)
Procedure: As an example to illustrate how relative (%) immunoreactivity for HCV synthetic peptides is measured, wells of 96-well plates are coated for 1 hour at 37° C., with each of the following peptides: IIH, V, VIIIE and pep11 at 5 ug/mL at 100 uL per well in 10 mM NaHCO3 buffer, pH 9.5. The peptide coated wells were then incubated with 250 uL of 3% by weight of gelatin in PBS in 37° C. for 1 hour to block non-specificprotein binding sites, followed by three washes with PBS containing 0.05% by volume of TWEEN 20 and then dried. The test specimens containing a panel of eight well-characterized HCV antibody positive patient sera were diluted with PBS containing 20% by volume normal goat serum, 1% by weight gelatin and 0.05% by volume TWEEN 20 at dilutions of 1:20 volume to volume, respectively. 200 uL of the diluted specimens were added to each of the wells and allowed to react for 15 minutes at 37° C.
The wells were then washed six times with 0.05% by volume TWEEN 20 in PBS in order to remove unbound antibodies. Horseradish peroxidase conjugated goat anti-human IgG was used as a second antibody tracer to bind with the HCV antibody-peptide antigen complex formed in positive wells. 100 uL of peroxidase labeled goat anti-human IgG at a dilution of 1:1800 in 1% by volume normal goat serum, 0.05% by volume TWEEN 20 in PBS was added to each well and incubated at 37° C. for another 15 minutes.
The wells were washed six times with 0.05% by volume TWEEN 20 PBS to remove unbound antibody and reacted with 100 uL of the substrate mixture containing 0.04% by weight orthophenylenediamine (OPD) and 0.12% by volume hydrogen peroxide in sodium citrate buffer, pH 5.0.
This substrate mixture was used to detect the peroxidase label by forming a colored product. Reactions were stopped by the addition of 100 uL of 1.0M H2 SO4 and the A492 mm measured. Results of relative immunoreactivity for each of the peptides obtained from this study are shown in Table A using peptide II H as the reference.

[5] = Early HCV Infection panel, n = 9
[6] = Late HCV Infection panel, n = 14
[7] = NS-5 peptides (Table 12), Panel I, pep11 as a standard
[8] = capsid peptides, Panel I, relative to VIIIE, coated at 5, 1 and 0.2 μg/mL
[9] = Arima clone 1 peptides, relative to peptide VIIIE

Which results are given for “ANGSGPDQRPYCWHYPPKPCGIVPAKSVCGPVYC [231B]”?
% Relative Immunoreactivity in comparison to Pep2 (232A) (antibodies to HCV [1]; [5]): 30.9%; % Relative Immunoreactivity in comparison to Pep2 (232A) (antibodies to HCV [1]; [6]): 46.7%; % IP (antibodies to HCV [2]): 96.4%

Which “% Relative Immunoreactivity” value (antibodies to HCV [3]) does the source give for “CGSVFLIGQLFTFSPRRHWTTQGCNCSIYPGHITGHRMAWDMMMNWSPTA [254C]” here?
The value was 16.7%.

CNESLNTGWLAGLIYQHKFNSSGCPERLASC [246B] was tested. Which “% Relative Immunoreactivity” value (antibodies to HCV [3]) did it give?
Its value is 19.8%.

For “CPERLASCRPLTDFDQGWGPISYANGSGPDQRPYCWHYPPKPCGIVPAKSVC [241C]”, which “% Relative Immunoreactivity in comparison to Pep2 (232A)” value (antibodies to HCV [1]; [5]) is on record?
The value was 44.7%.

What about the “% Relative Immunoreactivity in comparison to Pep2 (232A)” value (antibodies to HCV [1]; [6]) of the same sequence?
The value was 84.7%.

What about the “% IP” value (antibodies to HCV [2]) of the same sequence?
The value was 93.6%.

Which “% IP” value (antibodies to HCV [4]; [7]) does the source give for “CQVPSPEFFTELDGVRLHRFAPPCKPLLREEVSFRVGLHEYPVGSQLPCEPEPD [311C]” here?
Its value is 16.8%.

For “CVREGNVSRCWVAMTPTVATRDGKLPATQLRRHIDLLVGSATLC [244B]”, which “% Relative Immunoreactivity” value (antibodies to HCV [3]) is on record?
The value was 5.8%.

How did the “% Relative Immunoreactivity” value (antibodies to HCV [3]) turn out when “CWVAMTPIVATRDGKLPATQLRRHIDLLVGSATLC [244A]” was run?
The value was 3.8%.

With “FTDNSSPPVVPQSFQVAHLHAPTGSGKSTKPAAYA [278B]” as the sequence, how does the “% IP” value (antibodies to HCV [4]; NS-3 peptides (Table 4A), Panel I, relative to pep3 (279A)) read?
Its value is 1.4%.

For GPRLGVRATRKTSERSQPRGRR [VIIIA], which “% Relative Immunoreactivity” value (antibodies to HCV [4]; [8]) is on record?
The value was 32.7%.

How did the “% Relative Immunoreactivity” value (antibodies to HCV [4]; [8]) turn out when “IPKVRRPEGRTWAQPGYPWPLYGNEGCGWAGWLLSPRGSRPSWGPTDPRRRSRNLG [IXD]” was run?
Its value is 58.9%.

Which “% Relative Immunoreactivity” value (antibodies to HCV [4]; [9]) does the source give for “KEKEKTATNNPGKNKKPRVGRIKNWNREGRKDAYQIRKRR [40 mer, reference compound]” here?
The value was 21.1%.

“KKQRRYKEKEKTATNNPGKNKKPRVGRIKNWNREGRKDAYQIRKRR (NDTHKKQRRYKEKEKTATNNPGKNKKPRVGRIKNWNREGRKDAYQIRKRR) [50 mer, reference compound]” was tested. Which “% Relative Immunoreactivity” value (antibodies to HCV [4]; [9]) did it give?
Its value is 17.8%.

For “KQNIQLINTNGSWHINSTALNCNESLNTGWLAGLIYQHKFNSSGCPERLASC [246E]”, which “% Relative Immunoreactivity” value (antibodies to HCV [3]) is on record?
Its value is 10.5%.

How did the “% IP” value (antibodies to HCV [4]; [7]) turn out when “LRRLHQWISSECTTPCSGSWLRDIWDWICEVLSDFKTWLKAKLMPQL [314C]” was run?
The value was 14.2%.

For “LWRVSAEEYVEIRQVGDFHYVIGMTTDNLKCPCQVPSP [312C]”, which “% IP” value (antibodies to HCV [4]; [7]) is on record?
The value was 40.4%.
